Measured values as given in patent publication US9416143B2, “Griseofulvin derivatives” (PIERRE FABRE MEDICAMENT, priority 2012, dated 2016).
Read-outs that look alike come from different tables or passages of the source.

Tests used:
Type in all cases: cell-based
[1] = tested on: HSC-1 (cutaneous squamous carcinoma cell line); assay: Cell proliferation (ATPLite) on HSC-1 line; conditions: 50% inhibition of cell proliferation, read 72 hours after addition
Method: (§1) The lines N1E115 (ATCC, CRL2263), MDA-MB-231 (ATCC, HTB26) and HSC-1 (Health Science Research Resources Bank, JCRB1015) were cultured in DMEM medium (Dulbecco's Modified Eagle Medium) supplemented with 2 mM of L-Glutamine (Sigma, G7513) and 10% foetal calf serum (Hyclone, SH30109.03) or 20% for the HSC-1 cells. The HCC-1937 (ATCC, CRL2336) and A549 (ATCC, CCL185) lines were cultured in RPMI medium (Roswell Park Memorial Institute Medium) supplemented with 10% foetal calf serum and 2 mM of L-Glutamine. Finally, the SCC114 (DSMZ, ACC662) line was cultured in MEM medium (Minimum Essential Medium Eagle) supplemented with 10% foetal calf serum and 2 mM of L-Glutamine. Initially, in 96-well plates (Perkin Elmer, 6005668), the cells were seeded in their respective culture media with 750 cells per well for N1E115; 1000 cells per well for SCC114 and A549; 2000 cells per well for HCC-1937 and HSC-1; 2500 cells per well for MDA-MB-231. Cascade dilution of each compound was performed in dimethylsulfoxide (DMSO) (Sigma, D8418) from 10 mM stock solutions in 100% DMSO. Each of the dilutions was added to the cells 24 hours after seeding. Under these conditions the final solvent concentration was 0.1% DMSO. Reading of cell proliferation was conducted 72 hours after addition of products with the ATPLite kit (Perkin Elmer, 6016947) and following the manufacturer's directions except in the case of the HCC-1937 line for which this reading was carried out 48 hours after treatment. Analysis of proliferation results was performed by comparing with conditions in which solely the vehicle was added to the cells. The dose-response curves obtained were analysed using Prism 4.03 software (GraphPad Software Inc.) to determine the concentration of each compound allowing 50% inhibition of cell proliferation (IC50).
(§2) As examples, the cytotoxic properties of some compounds of the invention evaluated on the lines A549 (lung cancer cell line), MDA-MB-231 line (mammary adenocarcinoma cell line), N1E115 (mouse brain neuroblastoma cell line), HCC-1937 line (primary ductam breast carcinoma cell line), HSC-1 (cutaneous squamous carcinoma cell line) and SCC114 line (oral squamous carcinoma cell line) are reported in Table 1, as compared with griseofulvin used as control product. The concentration values are expressed in micromolar units (μM).

[2] = tested on: HCC-1937 line (primary ductam breast carcinoma cell line); assay: Cell proliferation (ATPLite) on HCC-1937 line; conditions: read 48 hours after treatment
Method: as §1, §2

[3] = tested on: SCC114 line (oral squamous carcinoma cell line); assay: Cell proliferation (ATPLite) on SCC114 line; conditions: read 72 hours after addition
Method: as §1, §2

[4] = tested on: A549 (lung cancer cell line); assay: Cell proliferation (ATPLite) on A549 line; conditions: read 72 hours after addition
Method: as §1, §2

[5] = tested on: N1E115 (mouse brain neuroblastoma cell line); assay: Cell proliferation (ATPLite) on N1E115 line; conditions: read 72 hours after addition
Method: as §1, §2

[6] = tested on: MDA-MB-231 line (mammary adenocarcinoma cell line); assay: Cell proliferation (ATPLite) on MDA-MB-231 line; conditions: read 72 hours after addition
Method: as §1, §2

[7] = 50% inhibition of cell proliferation, read-out: IC50 (μM) HCC1937
[8] = 50% inhibition of cell proliferation
[9] = 50% inhibition of cell proliferation, read-out: IC50 (μM) N1E-115
[10] = Homo sapiens, HCC1937, 50% inhibition of cell proliferation
[11] = SCC114, 50% inhibition of cell proliferation
[12] = Homo sapiens, A549, 50% inhibition of cell proliferation
[13] = Mus musculus, N1E-115, 50% inhibition of cell proliferation
[14] = Homo sapiens, MDA-MB-231, 50% inhibition of cell proliferation

| IC50 [1] [µM] | IC50 [2, 7] [µM] | IC50 [3, 8] [µM] | IC50 [4, 8] [µM] | IC50 [5, 9] [µM] | IC50 [6, 8] [µM] | IC50 [2, 10] [µM] | IC50 [3, 11] [µM] | IC50 [4, 12] [µM] | IC50 [5, 13] [µM] | IC50 [6, 14] [µM] | SMILES |
| --- | --- | --- | --- | --- | --- | --- | --- | --- | --- | --- | --- |
| 6 | > 10 | 0.52 | 0.25 | 0.21 | 0.45 |  |  |  |  |  | COc1cc(OC)c2c(c1Cl)O[C@]1(C2=O)C2=C(C[C@H](c3ccccc3)O2)C(=O)C[C@H]1C [compound 3, (2R,2′S,6R)-7′-chloro-4′,6′-dimethoxy-6-methyl-2-phenyl-5,6-dihydro-2H,3′H-2,7′-spirobi[benzofuran]-3′,4(3H)-dione] |
|  | > 10 | 0.38 | 0.95 | 0.25 | 0.86 |  |  |  |  |  | COc1cc(OC)c2c(c1Cl)O[C@]1(C2=O)C2=C(C[C@](C)(c3ccccc3)O2)C(=O)C[C@H]1C [compound 5, (2R,2′S,6R)-7′-chloro-4′,6′-dimethoxy-2,6-dimethyl-2-phenyl-5,6-dihydro-2H,3′H-2,7′-spirobi[benzofuran]-3′,4(3H)-dione] |
| 0.32 | 0.43 | 0.25 | 0.25 | 1 | 0.54 |  |  |  |  |  | COc1cc(OC)c2c(c1Cl)O[C@@]1(C=C([S+]([O-])c3ccccc3)C(=O)C[C@H]1C)C2=O (some centres unmarked) [compound 95] |
| 1.4 | 1.4 | 0.385 | 1.5 | 3 | 2 |  |  |  |  |  | COc1cc(OC)c2c(c1Cl)O[C@]1(C2=O)C(S(=O)(=O)Cc2ccccc2)=CC(=O)C[C@H]1C [compound 145, (1′R,6′R)-2′-(benzylsulfonyl)-7-chloro-4,6-dimethoxy-6′-methyl-3H-spiro[benzofuran-2,1′-cyclohex[2]ene]-3,4′-dione] |
| 0.72 |  |  |  |  |  | > 10 | 0.23 | 0.24 | 0.21 | 0.34 | COC(=O)C1=C[C@H](c2ccccc2)C2=C(C[C@@H](C)[C@]3(Oc4c(Cl)c(OC)cc(OC)c4C3=O)C2=O)N1 [compound 149, (2S,4′R,7′R)-methyl 7-chloro-4,6-dimethoxy-7′-methyl-3,5′-dioxo-4′-phenyl-4′,5′,7′,8′-tetrahydro-1′H,3H-spiro[benzofuran-2,6′-quinoline]-2′-carboxylate] |
| 10 |  |  |  |  |  | > 10 | 0.71 | 0.48 | 0.62 | 1.6 | COC(=O)c1cc(-c2ccccc2)c2c(n1)C[C@@H](C)[C@]1(Oc3c(Cl)c(OC)cc(OC)c3C1=O)C2=O [compound 152, (2S,7′R)-methyl 7-chloro-4,6-dimethoxy-7′-methyl-3,5′-dioxo-4′-phenyl-7′,8′-dihydro-3H,5′H-spiro[benzofuran-2,6′-quinoline]-2′-carboxylate] |
| 1.3 | > 10 | 0.33 | 0.36 | 0.73 | 0.63 |  |  |  |  |  | COc1cc(OC)c2c(c1Cl)O[C@]1(C2=O)C2=C(C[C@@H](c3ccccc3)O2)/C(=N/O)C[C@H]1C [compound 217, (2′S,6R,E)-7′-chloro-4-(hydroxyimino)-4′,6′-dimethoxy-6-methyl-2-phenyl-3,4,5,6-tetrahydro-2H,3′H-2,7′-spirobi[benzofuran]-3′-one] |
| 0.88 |  |  |  |  |  | > 10 | 0.42 | 0.55 | 0.26 | 0.34 | COc1cc(OC)c2c(c1Cl)O[C@]1(C2=O)C(O)c2ccc(C)nc2C[C@H]1C (stereo partly drawn) [compound 249, (2S,7′R)-7-chloro-5′-hydroxy-4,6-dimethoxy-2′,7′-dimethyl-7′,8′-dihydro-3H,5′H-spiro[benzofuran-2,6′-quinolin]-3-one] |
| 1.9 |  |  |  |  |  | > 10 | 0.54 | 1.4 | 1.4 | 0.35 | CCc1ccc2c(n1)C[C@@H](C)[C@]1(Oc3c(Cl)c(OC)cc(OC)c3C1=O)C2O (stereo partly drawn) [compound 250, (2 S,7′R)-7-chloro-2′-ethyl-5′-hydroxy-4,6-dimethoxy-7′-methyl-7′,8′-dihydro-3H,5′H-spiro[benzofuran-2,6′-quinolin]-3-one] |
| 0.52 |  |  |  |  |  | > 10 | 0.32 | 0.25 | 0.2 | 0.38 | COC(=O)c1cc(-c2ccccc2)c2c(n1)C[C@@H](C)[C@]1(Oc3c(Cl)c(OC)cc(OC)c3C1=O)[C@H]2O [compound 252, (2S,5′S,7′R)-methyl 7-chloro-5′-hydroxy-4,6-dimethoxy-7′-methyl-3-oxo-4′-phenyl-7′,8′-dihydro-3H,5′H-spiro[benzofuran-2,6′-quinoline]-2′-carboxylate] |
